Publication PMC10895676, “Antiviral Activity of Lipophilic Nucleoside Tetraphosphate Compounds” (Journal of Medicinal Chemistry, 2024)

Assays:
HIV-RT = target: T1, HIV-RT (Human immunodeficiency virus type 1 group M subtype B, UniProt P03366); assay: Primer extension assay using HIV-RT; type: biochemical; details: 30 min, 6 U HIV-RT, 37 °C
T1 construct: HIV-RT HIV reverse transcriptase; purchased Roboklon
Method: Figure 6 Primer extension assay using HIV-RT (A), human polymerases α (B), β (C), and γ (D). (Figure 6A). Primer extension assay using HIV-RT (30 min, 6U). Lane 1: (+) dATP, dCTP, dGTP, and TTP with HIV-RT. Lane 2: (−) dATP, dCTP, dGTP, and TTP without HIV-RT. Lane 3: TTP. […] Lane 5: δ-(C4; C18)-d4T4P 4d. […] Lane 7: δ-(C18)-d4T4P 20. Lane 8: δ-C-(C18)-d4T4P 24. Lane 9: d4T4P. Lane 10: d4TTP. Lane 11: d4TDP. HIV-RT assay reaction conditions: 50 mM Tris–HCl (pH 8.6), 10 mM MgCl2, 40 mM KCl, 250 μM dNTPs, HIV-RT (6 U), 0.20 μM DNA hybrid, primer-template-hybrid 0.32 mM in a reaction volume of 10 μL, incubated at 37 °C for 0.5 h, 80 °C for 7 min. Primer extension assays: 50 mA, 45 w for 4 h. (Figure 6B). For human DNA polymerase α assay (60 min, 2 U): Lane 1: (+) dATP, dCTP, dGTP, and TTP with human polymerase α. Lane 2: (−) dATP, dCTP, dGTP, and TTP without human polymerase α. Lane 3: TTP. […] Lane 5: δ-(C4; C18)-d4T4P 4d. […] Lane 7: δ-(C18)-d4T4P 20. Lane 8: δ-C-(C18)-d4T4P 24. Lane 9: d4T4P. Lane 10: d4TTP. Human DNA polymerase α assay conditions: 60 mM Tris–HCl (pH 8), 5 mM Mg(OAc)2, 100 mM KCl, 1.0 mM dithiothreitol, 0.1 mM spermine, 0.01% (w/v) bovine serum albumin, 250 μM dNTPs, 2 U human polymerase α, 0.20 μM DNA hybrid, and primer-template-hybrid 0.32 mM in a reaction volume of 10 μL, incubated at 37 °C for 1 h, 80 °C for 7 min. Primer extension assays: 50 mA, 45 w for 3 h. (Figure 6C). For human DNA polymerase β assay (60 min, 2 U): Lane 1: (+) dATP, dCTP, dGTP, and TTP with human polymerase β. Lane 2: (−) dATP, dCTP, dGTP, and TTP without human polymerase β. Lane 3: TTP. […] Lane 5: δ-(C4; C18)-d4T4P 4d. […] Lane 7: δ-(C18)-d4T4P 20. Lane 8: δ-C-(C18)-d4T4P 24. Lane 9: d4T4P. Lane 10: d4TTP. Human DNA polymerase β assay conditions: 50 mM Tris–HCl (pH 8.7), 10 mM Mg(OAc)2, 100 mM KCl, 1.0 mM dithiothreitol, 0.1 mM spermine, 0.01% (w/v) bovine serum albumin, 15% glycerol, 250 μM dNTPs, 2 U human DNA polymerase β, 0.20 μM DNA hybrid, and primer-template-hybrid 0.32 mM in a reaction volume of 10 μL, incubated at 37 °C for 1 h, 80 °C for 7 min. Primer extension assays: 50 mA, 45 w for 3 h. (Figure 6D), For the human DNA polymerase γ assay (120 min, 2 U): Lane 1: (+) dATP, dCTP, dGTP, and TTP with human polymerase γ. Lane 2: (−) dATP, dCTP, dGTP, and TTP without human polymerase γ. Lane 3: TTP. […] Lane 5: δ-(C4; C18)-d4T4P 4d. […] Lane 7: δ-(C18)-d4T4P 20. Lane 8: δ-C-(C18)-d4T4P 24. Lane 9: d4T4P. Lane 10: d4TTP. Human polymerase γ assay conditions: 60 mM Tris–HCl (pH 8), 5 mM Mg(OAc)2, 1.0 mM dithiothreitol, 0.1 mM spermine, 0.01% (w/v) bovine serum albumin, 250 μM dNTPs, 2 U human polymerase γ, 0.5 μM MnCl2, 0.20 μM DNA hybrid, primer-template-hybrid 0.32 mM in a reaction volume of 10 μL, incubated at 37 °C for 2 h, 80 °C for 7 min. Primer extension assays: 50 mA, 45 w for 3 h.
HIV-RT and human polymerases α, β, and γ were bought from Roboklon and Chimerx. The fluorescent-labeled primer and template were obtained from Metabion.
For the annealing of the primer/template mixture, 40 μL of the 10 μM primer and 60 μL of the 10 μM template were incubated for 5 min at 95 °C. Then, for optimal annealing, the temperature was reduced over a period of 2 h to 20 °C and incubated again for 20 min at 20 °C.
For the primer extension, the reaction mixture was incubated for 30 min for the HIV-RT, 60 min for the human DNA polymerase α, and 120 min for the human DNA polymerases β and γ at 37 °C, followed by 7 min at 80 °C.

[1] = Hydrolysis in citrate-stabilized human plasma; type: in vitro ADME; details: 37 °C, read-out: t1/2 in citrate-stabilized human plasma (converted)
Method: Finally, the supernatant was divided into aliquots and frozen at −80 °C.
Two different samples, including 10 μL of water and 10 μL of 6.0 mM hydrolysis solution, were prepared in 2 mL Eppendorf vials. Next, 50 μL of human CEM cell extracts or 50 μL of human citrate plasma were added to the mixture, the reaction was started, and the mixture was incubated at 37 °C for different time periods. The reactions were stopped by the addition of 150 μL of MeOH. The resulting suspension was kept on ice for 5 min, followed by defrosting and centrifugation at 14,000 rpm (Heraeus, Biofuge Pico) for 22 min. The supernatants (80 or 60 μL) were directly injected into HPLC. The calculation of t1/2 was performed analogously to that for the chemical hydrolysis studies.

Row | Structure (SMILES) | substrate for HIV-RT (primer extension) (HIV-RT) | half-life at 0.86 mM [1]
1 | CCCCCCCCCCCCCCCCCCOP(=O)(OCCCC)OP(=O)(O)OP(=O)(O)OP(=O)(O)OC[C@@H]1C=C[C@H](n2cc(C)c(=O)[nH]c2=O)O1 (stereo partly shown) [4d, δ-(Alkyl-C4; alkyl-C18)-d4T4P] | good substrates | 
2 | CCCCCCCCCCCCCCCCCCP(=O)(OCCCC)OP(=O)(O)OP(=O)(O)OP(=O)(O)OC[C@@H]1C=C[C@H](n2cc(C)c(=O)[nH]c2=O)O1 (stereo partly shown) [5a, δ-(Alkyl-C4)-δ-C-(alkyl-C18)-d4T4P] | good substrates | > 22 h
3 | CCCCCCCCCCCCCCCCCCOP(=O)(O)OP(=O)(O)OP(=O)(O)OP(=O)(O)OC[C@@H]1C=C[C@H](n2cc(C)c(=O)[nH]c2=O)O1 [compound 20, δ-(Alkyl-C18)-d4T4P] | substrates | 
4 | CCCCCCCCCCCCCCCCCCP(=O)(O)OP(=O)(O)OP(=O)(O)OP(=O)(O)OC[C@@H]1C=C[C@H](n2cc(C)c(=O)[nH]c2=O)O1 [compound 24, δ-C-(Alkyl-C18)-d4T4P] | substrates | > 22 h
5 | Cc1cn([C@H]2C=C[C@@H](COP(=O)(O)OP(=O)(O)OP(=O)(O)OP(=O)(O)O)O2)c(=O)[nH]c1=O [d4T4P, 2′,3′-didehydro-2′,3′-dideoxythymidine-5′-tetraphosphate] | substrate | 
